This is an account of results in patent US11236378B2 (priority 2015, dated 2022).

This data set concerns HEK293T cells. The settings on record: human.

As to `COc1ncc(-c2ccc3nc(N)n(-c4ccc(N5CCOCC5)cc4)c3c2)cc1S(=O)(=O)Nc1ccccc1F` [A1, 5-(2-amino-1-(4-(4-morpholinyl)phenyl)-1H-benzimidazol-6-yl)-N-(2-fluorophenyl)-2-methoxy-3-pyridinesulfonamide], the “concentration that killed most of the cells” value is at least 0.25 µM.
